Experimental data from patent US20130158073A1, “Methods Of Diminishing Co-Abuse Potential” (priority 2004, published 2013).
Structures can show the parent of a compound that is named as a salt.

What was measured:
[1] = cited from earlier work
male Sprague-Dawley rats = details: coadministered with 10% w/v ethanol
[2] = co-administration of racemic methylphenidate and ethanol

Q: Which “transesterification after co-administration of racemic methylphenidate and ethanol” value [1, 2] does the source give for COC(=O)[C@@H](c1ccccc1)[C@@H]1CCCCN1 [l-methylphenidate] here?
A: The value was “transesterifies enantioselectively to l-ethylphenidate”.

Q: For COC(=O)[C@H](c1ccccc1)[C@H]1CCCCN1 [d-MPH, dexmethylphenidate HCl], which “potency compared to ethanol/d,l-MPH” value (male Sprague-Dawley rats; i.p.) is on record?
A: The value was “half as potent”.

Q: What does the source list for COC(=O)C(c1ccccc1)C1CCCCN1 (racemic) [d,l-MPH, d,l-methylphenidate HCl]?
A: potency compared to ethanol/cocaine for discriminative stimulus effects (male Sprague-Dawley rats; i.p.): equipotent; potency compared to ethanol/cocaine for response rate effects (male Sprague-Dawley rats; i.p.): equipotent; rates of response compared with saline control test sessions, at doses producing full ethanol/cocaine-lever responding (male Sprague-Dawley rats; i.p. 15 minutes before session): do not decrease rates of response; isomer excreted in the urine [1, 2]: primarily as the d-isomer; ethylphenidate metabolite in plasma and urine ([1]; human subjects, co-administration of a single dose of methylphenidate and ethanol): ethylphenidate was also detected in plasma and urine

Q: For CCOC(=O)C(c1ccccc1)C1CCCCN1 (centres unmarked) [Ethylphenidate], which “isomer excreted in the urine” value [1, 2] is on record?
A: Its value is “primarily as the l-isomer”.
